These compounds were tested against T1, GPR120 (Homo sapiens, UniProt Q5NUL3) (assay: GPR120 agonism in CHO mitoPhotinaGPR120 cell based assay with fluorescent (Fluo-8 calcium, FLIPRTetra) readout, Agonist Mode, dose response). Conditions: CHO mitoPhotinaGPR120 cells, Fluo-8 No Wash Ca2+ dye, dose response in quadruplicate, 0.0033% fatty acid free BSA.
T1 construct: expressed in transfected cells; host or cells: CHO mitoPhotinaGPR120 cells
T1 sequence (Q5NUL3 1-361): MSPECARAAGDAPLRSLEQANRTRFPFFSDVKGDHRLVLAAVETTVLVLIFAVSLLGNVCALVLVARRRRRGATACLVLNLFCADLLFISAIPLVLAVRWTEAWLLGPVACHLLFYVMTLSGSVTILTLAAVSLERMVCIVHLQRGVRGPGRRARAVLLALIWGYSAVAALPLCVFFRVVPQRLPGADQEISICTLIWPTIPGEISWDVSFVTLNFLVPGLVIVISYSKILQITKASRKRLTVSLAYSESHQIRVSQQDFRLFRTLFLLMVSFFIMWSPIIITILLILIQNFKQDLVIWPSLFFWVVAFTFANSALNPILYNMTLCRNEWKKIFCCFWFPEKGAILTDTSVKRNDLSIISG
Protocol: Compounds of the invention were tested for GPR120 agonism in a CHO mitoPhotinaGPR120 cell based assay with fluorescent readout in Agonist Mode in dose response in quadruplicate with intra-plate modality.
Twenty (20) h after seeding, growth medium was manually removed and cells were starved in the presence of 25 μL/w of Standard Tyrode's Buffer. After 3 h, cells were loaded with 20 μL/w of 0.5× Fluo-8 No Wash (AAT Bioquest, Inc.) Ca2+ sensitive dye prepared in Standard Tyrode's Buffer. Cells were incubated for 1 h at room temperature in the dark. Ten (10) μL/w 3× of controls and compounds were diluted in Standard Tyrode's Buffer+0.01% fatty acid free BSA (final concentration=0.0033%) and injected at the FLIPRTetra®, recording the kinetic calcium traces for 3 minutes. Standard Tyrode's buffer composition: 5 mM KCl, 130 mM NaCl, 2 mM CaCl2), 5 mM NaHCO3, 1 mM MgCl2, 20 mM HEPES, pH7.4.

| EC50 [µM] | Compound |
| --- | --- |
| 0.45 | Cc1nn(-c2ccccc2)c(COc2c(F)cc(CC(C)CO)cc2F)c1C#N (racemic) [Example 43, 5-[[2,6-difluoro-4-(3-hydroxy-2-methyl-propyl)phenoxy]methyl]-3-methyl-1-phenyl-pyrazole-4-carbonitrile] |
| 2.36 | Cc1nn(-c2ccccc2)c(COc2ccc(CCC(C)O)cc2)c1C#N (single isomer, unassigned; (-)) [Example 47B, (−)-5-[[4-(3-hydroxybutyl)phenoxy]methyl]-3-methyl-1-phenyl-pyrazole-4-carbonitrile] |
| 1.29 | Cc1nn(-c2ccccc2)c(COc2ccc(C#N)cc2)c1C#N [Example 1, 5-[(4-cyanophenoxy)methyl]-3-methyl-1-phenyl-pyrazole-4-carbonitrile] |
| 1.33 | Cc1nn(-c2ccccc2)c(COc2c(F)cc(CO)cc2F)c1C#N [Example 21, 5-[[2,6-difluoro-4-(hydroxymethyl)phenoxy]methyl]-3-methyl-1-phenyl-pyrazole-4-carbonitrile] |
| 8.13 | Cc1nn(-c2ccccc2)c(COc2ccccc2CO)c1C#N [Example 23, 5-[[2-(hydroxymethyl)phenoxy]methyl]-3-methyl-1-phenyl-pyrazole-4-carbonitrile] |
| 7.31 | Cc1nn(-c2ccccc2)c(COc2cccc(CO)c2)c1C#N [Example 24, 5-[[3-(hydroxymethyl)phenoxy]methyl]-3-methyl-1-phenyl-pyrazole-4-carbonitrile] |
| 0.94 | Cc1cccc(C)c1OCc1c(C#N)c(C)nn1-c1ccccc1 [Example 25, 5-[(2,6-dimethylphenoxy)methyl]-3-methyl-1-phenyl-pyrazole-4-carbonitrile] |
| 0.09 | Cc1nn(-c2ccccc2)c(COc2c(F)cc(CCCO)cc2F)c1C#N [Example 32, 5-[[2,6-difluoro-4-(3-hydroxypropyl)phenoxy]methyl]-3-methyl-1-phenyl-pyrazole-4-carbonitrile] |
| 1.27 | Cc1nn(-c2ccccc2)c(COc2ccc(CCO)cc2F)c1C#N [Example 33, 5-[[2-fluoro-4-(2-hydroxyethyl)phenoxy]methyl]-3-methyl-1-phenyl-pyrazole-4-carbonitrile] |
| 0.79 | Cc1nn(-c2ccccc2)c(COc2cccc(F)c2)c1C#N [Example 40, 5-[(3-fluorophenoxy)methyl]-3-methyl-1-phenyl-pyrazole-4-carbonitrile] |
| 0.49 | Cc1nn(-c2ccccc2)c(COc2ccc(CCCO)cc2F)c1C#N [Example 42, 5-[[2-fluoro-4-(3-hydroxypropyl)phenoxy]methyl]-3-methyl-1-phenyl-pyrazole-4-carbonitrile] |
| 0.52 | COc1cc(CCCO)ccc1OCc1c(C#N)c(C)nn1-c1ccccc1 [Example 53, 5-[[4-(3-hydroxypropyl)-2-methoxy-phenoxy]methyl]-3-methyl-1-phenyl-pyrazole-4-carbonitrile] |
| 18.4 | Cc1nn(-c2ccccc2)c(COc2ccc(C(C)O)cc2)c1C#N (stereo not shown) [Example 54, 5-[[4-(1-hydroxyethyl)phenoxy]methyl]-3-methyl-1-phenyl-pyrazole-4-carbonitrile] |

The remaining lines, values behind:

| Compound | EC50 [µM] |
| --- | --- |
| Cc1nn(-c2ccccc2)c(COc2ccc(CCC(C)O)cc2)c1C#N (racemic) [Example 47, 5-[[4-(3-hydroxybutyl)phenoxy]methyl]-3-methyl-1-phenyl-pyrazole-4-carbonitrile] | 1.65 |
| Cc1nn(-c2ccccc2)c(COc2c(F)cc(CC(C)CO)cc2F)c1C#N (single isomer, unassigned; (+)) [Example 43A, (+)-5-[[2,6-difluoro-4-(3-hydroxy-2-methyl-propyl)phenoxy]methyl]-3-methyl-1-phenyl-pyrazole-4-carbonitrile] | 0.34 |
| Cc1nn(-c2ccccc2)c(COc2c(F)cc(CC(C)CO)cc2F)c1C#N (single isomer, unassigned; (+)) [Example 43B, (+)-5-[[2,6-difluoro-4-(3-hydroxy-2-methyl-propyl)phenoxy]methyl]-3-methyl-1-phenyl-pyrazole-4-carbonitrile] | 1.69 |
| Cc1nn(-c2ccccc2)c(COc2ccc(CCC(C)O)cc2)c1C#N (single isomer, unassigned; (+)) [Example 47A, (+)-5-[[4-(3-hydroxybutyl)phenoxy]methyl]-3-methyl-1-phenyl-pyrazole-4-carbonitrile] | 0.5 |
| Cc1nn(-c2ccccc2)c(COc2ccc(CO)cc2Cl)c1C#N [Example 2, 5-[[2-chloro-4-(hydroxymethyl)phenoxy]methyl]-3-methyl-1-phenyl-pyrazole-4-carbonitrile] | 1.24 |
| COc1ccc(OCc2c(C#N)c(C)nn2-c2ccccc2)cc1 [Example 3, 5-[(4-methoxyphenoxy)methyl]-3-methyl-1-phenyl-pyrazole-4-carbonitrile] | 1.31 |
| Cc1ccc(OCc2c(C#N)c(C)nn2-c2ccccc2)cc1 [Example 4, 3-methyl-5-[(4-methylphenoxy)methyl]-1-phenyl-pyrazole-4-carbonitrile] | 1.67 |
| Cc1nn(-c2ccccc2)c(COc2ccc(CO)cc2)c1C#N [Example 5, 5-[[4-(hydroxymethyl)phenoxy]methyl]-3-methyl-1-phenyl-pyrazole-4-carbonitrile] | 2.31 |
| Cc1nn(-c2ccccc2)c(COc2ccc(CCO)cc2)c1C#N [Example 6, 5-[[4-(2-hydroxyethyl)phenoxy]methyl]-3-methyl-1-phenyl-pyrazole-4-carbonitrile] | 1.1 |
| Cc1nn(-c2ccccc2)c(COc2ccccc2)c1C#N [Example 8, 3-methyl-5-(phenoxymethyl)-1-phenyl-pyrazole-4-carbonitrile] | 1.52 |
| Cc1nn(-c2ccccc2)c(COc2ccc(C#N)cc2F)c1C#N [Example 10, 5-[(4-cyano-2-fluoro-phenoxy)methyl]-3-methyl-1-phenyl-pyrazole-4-carbonitrile] | 3.39 |
| Cc1nn(-c2ccccc2)c(COc2ccc(CO)c(F)c2F)c1C#N [Example 14, 5-[[2,3-difluoro-4-(hydroxymethyl)phenoxy]methyl]-3-methyl-1-phenyl-pyrazole-4-carbonitrile] | 3.09 |
| Cc1cc(CO)ccc1OCc1c(C#N)c(C)nn1-c1ccccc1 [Example 16, 5-[[4-(hydroxymethyl)-2-methyl-phenoxy]methyl]-3-methyl-1-phenyl-pyrazole-4-carbonitrile] | 0.86 |
| Cc1cc(CO)cc(C)c1OCc1c(C#N)c(C)nn1-c1ccccc1 [Example 17, 5-[[4-(hydroxymethyl)-2,6-dimethyl-phenoxy]methyl]-3-methyl-1-phenyl-pyrazole-4-carbonitrile] | 1.01 |
| Cc1nn(-c2ccccc2)c(COc2ccc(F)cc2)c1C#N [Example 18, 5-[(4-fluorophenoxy)methyl]-3-methyl-1-phenyl-pyrazole-4-carbonitrile] | 1.41 |
| Cc1nn(-c2ccccc2)c(COc2ccc(CO)cc2F)c1C#N [Example 20, 5-[[2-fluoro-4-(hydroxymethyl)phenoxy]methyl]-3-methyl-1-phenyl-pyrazole-4-carbonitrile] | 1.77 |
| Cc1ccccc1OCc1c(C#N)c(C)nn1-c1ccccc1 [Example 26, 3-methyl-5-[(2-methylphenoxy)methyl]-1-phenyl-pyrazole-4-carbonitrile] | 0.58 |
| Cc1nn(-c2ccccc2)c(COc2ccc(CC#N)cc2)c1C#N [Example 29, 5-[[4-(cyanomethyl)phenoxy]methyl]-3-methyl-1-phenyl-pyrazole-4-carbonitrile] | 4.22 |
| Cc1cccc(OCc2c(C#N)c(C)nn2-c2ccccc2)c1C [Example 30, 5-[(2,3-dimethylphenoxy)methyl]-3-methyl-1-phenyl-pyrazole-4-carbonitrile] | 0.71 |
| Cc1nn(-c2ccccc2)c(COc2ccc(CCCO)cc2)c1C#N [Example 35, 5-[[4-(3-hydroxypropyl)phenoxy]methyl]-3-methyl-1-phenyl-pyrazole-4-carbonitrile] | 0.15 |
| CCc1ccccc1OCc1c(C#N)c(C)nn1-c1ccccc1 [Example 39, 5-[(2-ethylphenoxy)methyl]-3-methyl-1-phenyl-pyrazole-4-carbonitrile] | 7.24 |
| Cc1nn(-c2ccccc2)c(COc2ccc(CC(=O)NCCO)cc2)c1C#N [Example 49, 2-[4-[(4-cyano-5-methyl-2-phenyl-pyrazol-3-yl)methoxy]phenyl]-~{N}-(2-hydroxyethyl)acetamide] | 18.4 |
| COCc1ccc(OCc2c(C#N)c(C)nn2-c2ccccc2)cc1 [Example 55, 5-[[4-(methoxymethyl)phenoxy]methyl]-3-methyl-1-phenyl-pyrazole-4-carbonitrile] | 2.03 |
| COCCc1ccc(OCc2c(C#N)c(C)nn2-c2ccccc2)cc1 [Example 56, 5-[[4-(2-methoxyethyl)phenoxy]methyl]-3-methyl-1-phenyl-pyrazole-4-carbonitrile] | 5 |
